From patent publication US4454123A, “O-xylopyranoside series compounds and methods of use” (Seikagaku Kogyo Co. Ltd., priority 1980, dated 1984)
Where two headings read alike, the source gives them in different places.

What was measured:
ddY mice = test: Acute toxicity (LD50) by oral or intraperitoneal administration to ddY mice (Test Example 6); format: in vivo; conditions: 7 days, 10080 min; for LD50 (ip): intraperitoneal
Description: (§1) The acute toxicity of the compound according to this invention was determined by forced oral or intraperitoneal administration thereof to ddY mice.
(§2) To prepare each specimen to be administered, a predetermined amount of each compound shown in Table 5 was dissolved in a physiological saline or suspended in a 0.2% solution of carboxymethylcellulose in a physiological saline. Each specimen was administered orally to a ddY mouse via its stomach tube or injected intraperitoneally.

Sarcoma-180 = test: Activity against a transplantable cancer, Sarcoma-180 (Test Example 7); format: in vivo, ICR-JCL mice; conditions: 100 mg/kg ip once a day for 10 days; for inhibition in vivo at 100 mg/kg: Mus musculus, Sarcoma-180, ip, 240 h, read-out: I.R. (inhibition ratio, Sarcoma-180 tumor weight)
Description: Sarcoma-180 cells (1×10^6 cells) were inoculated subcutaneously into the back skin of each of ICR-JCL mice.
Chemotherapy was given intraperitoneally 24 hrs. after inoculation and performed once a day for 10 days. Each specimen to be administered was prepared by dissolving or suspending 30 mg of each compound according to this invention in 1 ml of a physiological saline or in 1 ml of a 0.2% solution of carboxymethylcellulose in a physiological saline, respectively.
All the solutions and the suspensions thus prepared were injected at a volume of 0.1 ml as a single dose (100 mg/Kg).
The inhibition ratio (%) was calculated according to the following equation: […]
wherein T represents the mean weight of the tumor Sarcoma-180 in a tested group of mice; and C represents the mean weight of the tumor in a control group of mice.

[1] = system: platelet agglutination caused by thrombin; test: Inhibitory effect against platelet agglutinating agent thrombin (Test Example 8); format: cell-based, human; parameters: key: The degree of agglutination was expressed by using marks +, ++, +++, etc.; The degree of agglutination was expressed by using marks +, ++, +++, etc.; The degree of agglutination was expressed by using marks +, ++, +++, etc; conditions: specimen 2 mM, dissolved in 50% ethanol
Description: (§3) Inhibitory activities of each compound of this invention against platelet agglutinating agents (ADP, collagen, thrombin, ristocetin and epinephrine)were investigated according to the method using a microscope.
(§4) PRP was prepared by mixing a 3.8% aqueous sodium citrate and a human vein blood at a ratio of 1:9; centrifuging the mixture at 700 r.p.m. for 10 minutes; and then collecting the supernatant.
(§5) The residue remaining after collection of the PRP mentioned above was subjected further to centrifugation at 3000 r.p.m. for 10 minutes and then collected the supernatant to obtain PPP.
(§6) Following solutions were employed for the test.
c. thrombin (0.25 U/ml solution)
(§7) In each well of a Multidish (Nunc Multidish having 24 wells) was placed 0.2 ml of PRP (containing 3.0×10^5 platelet cells/cmm).
(§8) Thereto was added 50 μl of a specimen solution containing 10 mM of the compound according to this invention, and the mixture was stirred at 37° C. for 2 minutes. To the mixture was added 10 μl of each solution of the platelet agglutinating agent mentioned above, and the result was observed by using a microscope 1 minute and then 5 minutes thereafter.
(§9) The degree of agglutination was expressed by using marks +, ++, +++, etc., according to the method by Fukutake et al [Katsuhiro Fukutake, Iwao Yamaguchi: Blood and Blood Vessel, Volume 6, No. 7, pp. 55-60 (1975)].

[2] = system: platelet agglutination caused by collagen; test: Inhibitory effect against platelet agglutinating agent collagen (Test Example 8); format: cell-based, human; parameters: key: The degree of agglutination was expressed by using marks +, ++, +++, etc.; The degree of agglutination was expressed by using marks +, ++, +++, etc.; The degree of agglutination was expressed by using marks +, ++, +++, etc; conditions: specimen 2 mM, dissolved in 50% ethanol
Description: as §3, §4, §5, §6
b. collagen (0.25 μM/ml solution)
as §7, §8, §9

[3] = system: platelet agglutination caused by ristocetin; test: Inhibitory effect against platelet agglutinating agent ristocetin (Test Example 8); format: cell-based, human; parameters: key: The degree of agglutination was expressed by using marks +, ++, +++, etc.; The degree of agglutination was expressed by using marks +, ++, +++, etc.; The degree of agglutination was expressed by using marks +, ++, +++, etc; conditions: specimen 2 mM, dissolved in 50% ethanol
Description: as §3, §4, §5, §6
d. ristocetin (1.5 mg/ml solution)
as §7, §8, §9

[4] = system: platelet agglutination caused by ADP; test: Inhibitory effect against platelet agglutinating agent ADP (Test Example 8); format: cell-based, human; parameters: key: The degree of agglutination was expressed by using marks +, ++, +++, etc.; The degree of agglutination was expressed by using marks +, ++, +++, etc.; The degree of agglutination was expressed by using marks +, ++, +++, etc; conditions: specimen 2 mM, dissolved in 50% ethanol
Description: as §3, §4, §5, §6
a. ADP (2 μM/ml solution)
as §7, §8, §9

[5] = Acute toxicity (LD50) by oral or intraperitoneal administration to ddY mice (Test Example 6); format: in vivo; conditions: mouse, in vivo, 7 days
Description: as §1, §2

[6] = system: platelet agglutination caused by epinephrine; test: Inhibitory effect against platelet agglutinating agent epinephrine (Test Example 8); format: cell-based, human; parameters: key: The degree of agglutination was expressed by using marks +, ++, +++, etc.; The degree of agglutination was expressed by using marks +, ++, +++, etc.; The degree of agglutination was expressed by using marks +, ++, +++, etc; conditions: specimen 2 mM, dissolved in 50% ethanol
Description: as §3, §4, §5, §6
e. epinephrine (2 μg/ml solution)
as §7, §8, §9

[7] = ip, intraperitoneal, read-out: LD50 (ip)

Structure (SMILES)	LD50 (ip) (ddY mice) [mg/kg body weight]	LD50 (po) (ddY mice) [mg/kg body weight]	I.R. (inhibition ratio, Sarcoma-180 tumor weight) (Sarcoma-180) [%]	State of agglutination, 5 min. [1]	State of agglutination, 5 min. [2]	State of agglutination, 5 min. [3]	State of agglutination, 5 min. [4]	LD50 at 168 h [5, 7] [mg/kg]	LD50 at 168 h ([5]; po, read-out: LD50 (po)) [mg/kg]	inhibition in vivo at 100 mg/kg (Sarcoma-180) [%]	State of agglutination, 5 min. [6]
O=C(O)c1ccc(C[C@@H]2OC[C@@H](O)[C@H](O)[C@H]2O)cc1 [C-para(sodiumoxycarbonyl)benzyl-β-D-xylopyranoside]	3000	9300	53.2								
CCCCCCCCC[C@@H]1OC[C@@H](O)[C@H](O)[C@H]1O [C-n-Nonyl-β-D-xylopyranoside]				+	+	+	+	920	3000	73.1	
CCCCCCCCCCCCCCCCS[C@@H]1OC[C@@H](O)[C@H](O)[C@H]1O [n-Cetyl 1-thio-β-D-xylopyranoside]				+	+	+	+	425	2280	34.7	
CCCCCCCCCCCCCCCCCCCCS[C@@H]1OC[C@@H](O)[C@H](O)[C@H]1O [n-Eicosyl 1-thio-β-D-xylopyranoside]				+	+	+	+	400	2300	32.2	
CCCCCCCCCCCCCCCCCC[C@@H]1OC[C@@H](O)[C@H](O)[C@H]1O [C-n-Stearyl-β-D-xylopyranoside]				+	+	+	+	480	2500	54.6	
CCCCCCCCCCS[C@@H]1OC[C@@H](O)[C@H](O)[C@H]1O [n-Decyl 1-thio-β-D-xylopyranoside]				+	+	+	+	450	2500	40	+
CCCCCCCCCCCCS[C@@H]1OC[C@@H](O)[C@H](O)[C@H]1O [n-Lauryl 1-thio-β-D-xylopyranoside]				+	+	+	+	407	2300	42.3	
O=C(O)c1ccc(O[C@@H]2OC[C@@H](O)[C@H](O)[C@H]2O)cc1 [Para(sodiumoxycarbonyl)phenyl-β-D-xylopyranoside]	2800	8200	39.7								
O=C(O)c1ccc(S[C@@H]2OC[C@@H](O)[C@H](O)[C@H]2O)cc1 [Para(sodiumoxycarbonyl)phenyl 1-thio-β-D-xylopyranoside]	2600	7000	49.6								
CCCCCCCCCCCCCCCCCCCC[C@@H]1OC[C@@H](O)[C@H](O)[C@H]1O [C-n-Eicosyl-β-D-xylopyranoside]				+	+	+	+	430	2620	44.3	
CCCCCCCCCCCC[C@@H]1OC[C@@H](O)[C@H](O)[C@H]1O [C-n-Lauryl-β-D-xylopyranoside]				+	+	+		620	2800	83.4	
